Earlier results on 1 compound are cited in US6852335B2, “Folic acid in solid dosage forms” (Shaklee Corporation, priority 1999, dated 2005).

SMILES strings stand for the structures.

For this series the following is noted: 25° C. (The Merck Index, 12th edition).

`Nc1nc2ncc(CNc3ccc(C(=O)N[C@@H](CCC(=O)O)C(=O)O)cc3)nc2c(=O)[nH]1` [Folic acid]: the solubility in water result was “approximately 1.6 mcg/ml”.
